How the values were obtained:
mouse PPARδ = target: T1, mouse PPARδ (Mus musculus, UniProt P35396); assay: Nuclear receptor specificity transfection assay; assay type: cell-based; details: 10 μM paclitaxel
T1 construct: expressed in transfected cells; host or cells: CV-1
T1 sequence (P35396 1-440): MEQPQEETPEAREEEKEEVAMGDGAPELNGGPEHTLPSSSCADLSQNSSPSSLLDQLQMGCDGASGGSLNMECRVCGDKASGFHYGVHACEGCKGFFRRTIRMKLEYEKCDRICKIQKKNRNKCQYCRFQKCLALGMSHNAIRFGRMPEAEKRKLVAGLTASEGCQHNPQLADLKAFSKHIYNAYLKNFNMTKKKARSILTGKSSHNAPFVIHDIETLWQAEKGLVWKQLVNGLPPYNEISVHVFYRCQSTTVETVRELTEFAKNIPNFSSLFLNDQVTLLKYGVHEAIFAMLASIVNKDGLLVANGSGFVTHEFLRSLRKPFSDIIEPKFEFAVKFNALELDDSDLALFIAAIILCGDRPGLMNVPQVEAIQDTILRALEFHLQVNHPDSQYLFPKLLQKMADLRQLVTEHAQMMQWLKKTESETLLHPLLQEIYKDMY

CV-1 cells = assay: Potential cytotoxic effects at the concentrations and treatment times used; details: at the indicated concentrations and treatment times
[1] = tested on: LS180 human colon cancer cells; assay: [14C]-paclitaxel efflux from pretreated LS180 cells; assay type: cell-based; details: LS180 cells induced 48 hours with 10 μM paclitaxel, 10 μM docetaxel or 100 nM LG268
Experimental: Taxane-induced drug efflux was measured using pretreated LS180 human colon cancer cells. The rate of drug efflux was measured. […] Individual data points are the means of triplicate determinations, error bars represent standard deviation and the lines are lines of regression. The slope of each line (rate of efflux) was compared to the slope obtained in the control (untreated) cells using an analysis of covariance. […] The entire experiment was performed three times with similar results. […] The cells were then incubated in media supplemented with 10 μM [^14C]-paclitaxel (4.9 μCi/umol, Moravek Biochemicals, Brea, Calif.) for 15 minutes. The uptake of ^14C-paclitaxel reached maximum levels at 10-12 minutes (data not shown). After 15 minutes, the cells were then rapidly centrifuged through silicone oil to remove all traces of extracellular radioactivity, resuspended in fresh media, and cell counts determined. At multiple time points over the next 10 minutes, triplicate aliquots of the cell suspension (approx. 1×10^5 cells/aliquot) were again centrifuged through silicon oil and the radioactivity in the cell pellet measured by quench-corrected liquid scintillation counting. The rate of [^14C]-paclitaxel efflux was determined as the slope of the [^14C]-paclitaxel versus time plots using all data. The slope for each inducer was compared to the slope obtained in the control (untreated) cells using an analysis of covariance.

mouse CARβ = target: T2, mouse CARβ (Mus musculus, UniProt O35627); assay: Nuclear receptor specificity transfection assay / LXRE×3-TK-luc reporter with CARβ in CV-1 cells; assay type: cell-based; details: 10 μM paclitaxel
T2 sequence (O35627 1-358): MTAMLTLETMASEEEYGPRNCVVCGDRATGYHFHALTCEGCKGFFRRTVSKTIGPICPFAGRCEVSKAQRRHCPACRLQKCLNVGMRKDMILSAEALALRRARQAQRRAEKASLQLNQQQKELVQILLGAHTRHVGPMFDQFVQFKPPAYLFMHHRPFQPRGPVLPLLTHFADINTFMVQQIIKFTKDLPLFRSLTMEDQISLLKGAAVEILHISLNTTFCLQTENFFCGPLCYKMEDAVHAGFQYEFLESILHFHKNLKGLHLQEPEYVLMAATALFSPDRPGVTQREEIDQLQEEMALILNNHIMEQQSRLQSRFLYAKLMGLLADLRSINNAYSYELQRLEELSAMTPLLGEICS

[2] = tested on: MDR1 protein (P-glycoprotein); assay: Western analysis with P-glycoprotein antibody of LS180 cells; assay type: cell-based, human; details: 10 μM, 48 hours
Experimental: Western Blotting was performed according to the following methods. Human LS180 cells in log phase growth were treated for 48 hours with the compounds indicated in the pertinent Figures. The cells were harvested, washed with phosphate buffered saline (PBS) and homogenized using 12-15 strokes of a Wheaton teflon-glass homogenizer. Cell debris was removed by centrifugation at 1500×g for 10 minutes, and the resulting supernatant was sedimented at 150,000×g for one hour at 4° C. to pellet the membranes. The membrane pellets were resuspended in PBS containing 1 mM phenylmethylsulfonyl fluoride and protein concentrations were determined according to standard prior art methods. […] The membranes were blocked with 5% non-fat dry milk in PBS with 0.1% Tween-20 (PBS-T) before incubation with a 1:500 dilution of P-glycoprotein antibody (Ab-1, Oncogene Research Products, Boston, Mass.) in blocking buffer for six hours at room temperature. Following several washes with PBS-T, membranes were incubated with a 1:1000 dilution of horseradish peroxidase-conjugated secondary anti-rabbit IgG antibodies. (Santa Cruz Biotechnology, Santa Cruz, Calif.) in blocking buffer for one hour at room temperature.

P-glycoprotein = P-glycoprotein (Mus musculus, UniProt P21447); details: orally administered; cited from earlier work
Sequence of P-glycoprotein (P21447 whole entry): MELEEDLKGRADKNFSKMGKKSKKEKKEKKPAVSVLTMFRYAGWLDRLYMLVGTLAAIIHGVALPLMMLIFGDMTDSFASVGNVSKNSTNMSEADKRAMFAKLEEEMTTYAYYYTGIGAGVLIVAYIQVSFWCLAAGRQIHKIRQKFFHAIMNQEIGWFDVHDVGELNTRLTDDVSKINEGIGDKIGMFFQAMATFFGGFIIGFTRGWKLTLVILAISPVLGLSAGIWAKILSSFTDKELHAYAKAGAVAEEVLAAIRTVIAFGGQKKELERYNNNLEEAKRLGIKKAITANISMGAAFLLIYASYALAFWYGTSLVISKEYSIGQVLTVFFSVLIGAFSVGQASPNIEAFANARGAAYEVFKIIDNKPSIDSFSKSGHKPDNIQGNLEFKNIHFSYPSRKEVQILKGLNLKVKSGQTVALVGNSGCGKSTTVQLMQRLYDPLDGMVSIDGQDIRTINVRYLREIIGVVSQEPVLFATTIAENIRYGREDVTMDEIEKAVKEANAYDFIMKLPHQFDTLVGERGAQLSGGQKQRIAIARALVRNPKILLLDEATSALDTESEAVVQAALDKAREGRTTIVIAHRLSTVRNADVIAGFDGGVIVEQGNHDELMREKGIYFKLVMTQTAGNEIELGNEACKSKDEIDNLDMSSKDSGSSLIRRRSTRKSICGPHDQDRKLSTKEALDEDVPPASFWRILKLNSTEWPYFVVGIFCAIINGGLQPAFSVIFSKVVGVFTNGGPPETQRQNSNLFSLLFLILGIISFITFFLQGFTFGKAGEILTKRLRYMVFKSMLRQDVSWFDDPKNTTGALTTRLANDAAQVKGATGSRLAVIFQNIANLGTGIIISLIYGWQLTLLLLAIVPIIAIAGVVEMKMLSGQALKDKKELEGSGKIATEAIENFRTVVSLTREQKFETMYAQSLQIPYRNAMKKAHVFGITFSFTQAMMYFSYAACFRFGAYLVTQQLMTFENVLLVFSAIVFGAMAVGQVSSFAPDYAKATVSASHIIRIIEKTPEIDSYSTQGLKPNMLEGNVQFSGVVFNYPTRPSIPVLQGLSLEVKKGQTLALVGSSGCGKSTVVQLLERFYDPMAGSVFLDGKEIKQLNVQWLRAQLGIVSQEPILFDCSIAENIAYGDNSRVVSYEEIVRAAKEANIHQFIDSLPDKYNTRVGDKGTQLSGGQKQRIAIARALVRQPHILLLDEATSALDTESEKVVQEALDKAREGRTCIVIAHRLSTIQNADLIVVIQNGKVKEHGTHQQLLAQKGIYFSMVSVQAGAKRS

human ERα = human ERα (Homo sapiens, UniProt P03372); details: 10 μM paclitaxel
Sequence of human ERα (P03372 whole entry): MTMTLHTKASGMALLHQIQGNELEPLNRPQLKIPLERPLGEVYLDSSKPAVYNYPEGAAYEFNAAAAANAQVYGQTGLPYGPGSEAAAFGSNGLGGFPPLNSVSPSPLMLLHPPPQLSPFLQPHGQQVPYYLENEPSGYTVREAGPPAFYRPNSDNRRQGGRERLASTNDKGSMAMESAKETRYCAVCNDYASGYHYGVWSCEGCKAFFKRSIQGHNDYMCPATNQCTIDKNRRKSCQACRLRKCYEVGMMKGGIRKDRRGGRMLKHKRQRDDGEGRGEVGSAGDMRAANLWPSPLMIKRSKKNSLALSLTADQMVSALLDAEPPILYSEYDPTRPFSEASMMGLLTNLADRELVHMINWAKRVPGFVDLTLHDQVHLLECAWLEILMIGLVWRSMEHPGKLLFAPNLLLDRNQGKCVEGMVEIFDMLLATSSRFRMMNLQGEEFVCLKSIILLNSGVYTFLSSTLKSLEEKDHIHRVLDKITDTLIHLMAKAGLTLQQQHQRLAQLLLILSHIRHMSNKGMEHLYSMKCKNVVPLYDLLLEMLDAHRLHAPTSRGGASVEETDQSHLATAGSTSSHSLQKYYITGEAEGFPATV

[3] = tested on: thyroid hormone receptor β (TRβ); details: 10 μM paclitaxel

effect on PPARδ reporter activity (mouse PPARδ): no effect
effect on CARβ reporter activity (mouse CARβ): no effect
effect on ERα reporter activity (human ERα): no effect
SMILES: CC(=O)O[C@H]1C(=O)[C@@]2(C)[C@H]([C@H](OC(=O)c3ccccc3)[C@]3(O)C[C@H](OC(=O)[C@H](O)[C@@H](NC(=O)c4ccccc4)c4ccccc4)C(C)=C1C3(C)C)[C@]1(OC(C)=O)CO[C@@H]1C[C@@H]2O [paclitaxel]
potential cytotoxic effects (CV-1 cells): minimal
rate of [14C]-paclitaxel efflux versus untreated cells [1]: significantly faster
induction of MDR1 protein (P-glycoprotein) expression [2]: much more effective than docetaxel
fecal excretion for which P-glycoprotein is responsible (P-glycoprotein): 85%
effect on TRβ reporter activity [3]: no effect

Reference: US20020061836A1, “Methods for altering SXR activation using peptide mimetic HIV protease inhibitor SXR ligands” (priority 2000, published 2002)
